Consider 18 compounds from patent US20230271956A1, “AMIDE DERIVATIVES” (Merck Patent GmbH, priority 2020, published 2023).

For experiment [1], the target named is T1, human rec ACSS2 (Homo sapiens, UniProt Q9NR19).
T1 construct: myc (C); purchased Origene
The experiment is described as follows: Biochemical activity ACSS2 assay (AMP-Glo). The note with it: human recombinant ACSS2, AMP-Glo, 180 min at 37° C. The gist of the method: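 C-terminal myc-tagged human recombinant ACSS2 (1 nM) reacted with 100 µM ATP, 100 µM CoA and 500 µM acetate (final) in pH 7.5 Hepes buffer for 180 min at 37° C, compound in 10 concentrations from 30 µM. Released AMP detected by AMP-Glo luminescence. IC50 normalised to inhibitor-free reaction and 5 µM reference inhibitor.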

For experiment [2], the target named is T2, ACSS2 (Homo sapiens, UniProt Q9NR19).
T2 construct: endogenous fatty acid synthesis activity in the human HCT-15 cancer cell line; endogenous in cells; host or cells: HCT-15
As to the kind of experiment: Cellular assay of 14C acetate incorporation into fatty acids (IC50 ACSS2 cellular lipids). The note with it: HCT-15 cells. It counts as cell-based. As to the method:
This protocol describes a cellular assay capable to quantify endogenous fatty acid synthesis activity in the human HCT-15 cancer cell line following the incorporation of extracellularly administered radiolabeled ^14C acetate with a scintillation proximity based read out on extracted fatty acids.
HCT-15 cells were grown in RPMI 1640 (Gibco) supplemented with 2 mM glutamine, 1 mM sodium pyruvate 10 mM HEPES and 10 % FCS (heat-inactivated) passaged every 2-3 days to remain a subconfluent, vital culture. A working cell bank was prepared with each aliquot containing 1x10^7 viable cells. After thawing, these cells are dilute immediately 1:20 in pre-warmed (37° C.) culture medium. Cells are collected by centrifugation at 200 x g for 5 min, and the supernatant is replaced by 30 mL of fresh culture medium per aliquot to obtain a cell suspension containing 350000 cells/ml. From this cell suspension 100 µL are dispersed into each well of a collagen coated 96 well plate, (black, clear bottom, PS, F-bottom, Greiner) and culture for 24 h (37° C., 5% CO2). After incubation the culture medium is removed and the wells are washed once with 100 µL PBS++ (supplemented with Mg^2+/ Ca^2+, Gibco) and 50 µL assay medium (RPMI 1640 + 10 mM HEPES) are added to each well. Compounds serial dilutions are prepared from 10 mM stock solutions in DMSO using a fixed dilution factor (usually 1:3). After preparation of the dilution series in DMSO, the individual dilutions are further diluted in the assay medium. This working dilution is prepared such, that the concentration is 7x of the final concentration in the assay. The maximal DMSO concentration in the final assay is 0.1%.
To each well 10 µL compound working dilution or DMSO blank are added and the cells are cultured for 2 h (37° C., 5% CO2). Then 10 µL AlamarBlue reagent (Invitrogen) containing 14 µCi/mL ^14C-acetate (Perkin Elmer) are added to each well (70 µl total volume) and cells are again cultured for 2 h. Cell viability is verified by measuring the AlamarBlue fluorescence (Tecan Safire, ex: 544 nm / em: 590 nm). After incubation the culture medium is removed and the wells are carefully washed once with cold 100 µL PBS++. For cell lysis and fatty acid recovery 50 µl 0.1 M NaOH and 0.1 % Triton-X100 are added per well. The plate is sealed with PlateLoc (clear peelable heat seal, Agilent) and incubate at 70° C. for 16-24 h. After cooling to room temperature, the plates are centrifuged for 1 min at 1000 rpm and the plate seals are removed. For acidification 150 µL 0.1 M HCl are added to each well, mixed and 150 µL of the mixture are transferred into a 96 well FlashPlate (Perkin Elmer). The plates are sealed with TopSeaI-a (Perkin Elmer). To allow for the fatty acid binding to the well surfaces the plates are incubate for 4 h at 70° C. After cooling to room temperature, the plates are centrifuged for 1 min at 1000 rpm and stored for 0.5-2 h at room temperature in the dark. Radioactivity from ^14C incorporation into fatty acids in the wells is measured as CPM count in a MicroBeta scintillation counter (Perkin Elmer).

In experiment [3] the target is T2, ACSS2. The experiment is described as follows: Cellular assay of 14C acetate incorporation into histones (IC50 ACSS2 cellular histone). Particulars: HCT-15 cells. It counts as cell-based. The gist of the method: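 Human HCT-15 cells preincubated 1 h with compound (0.25% DMSO final), then pulsed 3 h with 14C-acetate. Histones were acid-extracted (0.2 M HCl, overnight, 4° C) after Triton lysis in sodium-butyrate buffer; incorporated 14C counted by liquid scintillation (CPM) to give IC50.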

T2 sequence (Q9NR19 whole entry): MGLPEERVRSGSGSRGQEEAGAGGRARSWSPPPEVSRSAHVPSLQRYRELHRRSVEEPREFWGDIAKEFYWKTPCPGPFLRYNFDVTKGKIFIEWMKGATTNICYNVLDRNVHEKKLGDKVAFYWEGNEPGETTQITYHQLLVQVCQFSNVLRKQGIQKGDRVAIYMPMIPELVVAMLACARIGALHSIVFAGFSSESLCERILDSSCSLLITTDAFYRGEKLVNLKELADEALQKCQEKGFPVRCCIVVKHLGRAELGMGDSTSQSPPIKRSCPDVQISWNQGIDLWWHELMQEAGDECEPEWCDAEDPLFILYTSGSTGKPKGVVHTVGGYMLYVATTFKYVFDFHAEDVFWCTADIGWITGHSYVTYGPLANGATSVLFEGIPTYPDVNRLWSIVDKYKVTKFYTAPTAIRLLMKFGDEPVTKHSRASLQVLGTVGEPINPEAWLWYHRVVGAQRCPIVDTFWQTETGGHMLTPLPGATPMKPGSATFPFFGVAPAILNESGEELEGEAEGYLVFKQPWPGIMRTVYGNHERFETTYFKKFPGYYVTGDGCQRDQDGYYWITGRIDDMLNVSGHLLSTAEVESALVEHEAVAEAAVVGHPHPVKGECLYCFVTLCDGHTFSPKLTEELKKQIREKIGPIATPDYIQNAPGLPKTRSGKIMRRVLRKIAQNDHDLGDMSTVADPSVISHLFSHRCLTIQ
T1 sequence (Q9NR19 whole entry): as above

What is called IC50 is the concentration that gives 50% inhibition. As for `CCc1cnc(NC(=O)c2cc3c(nc2OC)nc(C(O)(c2ccccc2)c2ccccc2)n3CC)o1` [Compound 60, 1-ethyl-N-(5-ethyl-1,3-oxazol-2-yl)-2-(hydroxydiphenylmethyl)-5-methoxy-1H-imidazo[4,5-b]pyridine-6-carboxamide], the results for the concentration for half-maximal inhibition (IC50) in experiment [1], in experiment [2] and in experiment [3] were 0.01 to 1 nM, 1 to 10 nM and 0.01 to 1 nM, respectively.
Regarding `CCn1cnc(NC(=O)c2cnc3nc(C(O)(c4ccccc4)c4ccccc4)n(CC)c3c2)n1` [Compound 111, 1-ethyl-N-(1-ethyl-1H-1,2,4-triazol-3-yl)-2-(hydroxydiphenylmethyl)-1H-imidazo[4,5-b]pyridine-6-carboxamide], the values for the IC50 in experiment [1], in experiment [2] and in experiment [3] were 1 to 10 nM, 100 to 10000 nM and 100 to 10000 nM, respectively.
On to `CCc1nnc(NC(=O)c2cc3c(nc2OC)nc(C(O)(c2ccccc2)c2ccccc2)n3CC)o1` [Compound 64, 1-ethyl-N-(5-ethyl-1,30,4-oxadiazol-2-yl)-2-(hydroxydiphenylmethyl)-5-methoxy-1H-imidazo[4,5-b]pyridine-6-carboxamide], for which the IC50 is 0.01 to 1 nM in experiment [1], 0.01 to 1 nM in experiment [2] and 10 to 100 nM in experiment [3].
On to `CCc1coc(NC(=O)c2cc3c(nc2OC)nc(C(O)(c2ccccc2)c2ccccc2)n3CC)n1` [Compound 59, 1-ethyl-N-(4-ethyl-1,3-oxazol-2-yl)-2-(hydroxydiphenylmethyl)-5-methoxy-1H-imidazo[4,5-b]pyridine-6-carboxamide], for which the IC50 fell in the range of 1 to 10 nM in experiment [1], 0.01 to 1 nM in experiment [2] and 0.01 to 1 nM in experiment [3].
On to `CCn1cnc(NC(=O)c2cc3c(nc2OC)nc(C(O)(c2ccccc2)c2ccccc2)n3CCO)n1` [Compound 50, N-(1-ethyl-1H-1,2,4-triazol-3-yl)-2-(hydroxydiphenylmethyl)-1-(2-hydroxyethyl)-5-methoxy-1H-imidazo[4,5-b]pyridine-6-carboxamide], for which the IC50 lay within 1 to 10 nM in experiment [1], 100 to 10000 nM in experiment [2] and 1 to 10 nM in experiment [3].
As to `CCn1c(C(O)(c2ccccc2)c2ccccn2)nc2nc(OC)c(C(=O)Nc3ncn(CCOC)n3)cc21` (racemic) [Compound 65, 1-ethyl-2-[hydroxy(phenyl)(pyridin-2-yl)methyl]-5-methoxy-N-[1-(2-methoxyethyl)-1H-1,2,4-triazol-3-yl]-1H-imidazo[4,5-b]pyridine-6-carboxamide], the values for the IC50 in experiment [1], in experiment [2] and in experiment [3] were 100 to 10000 nM, 10 to 100 nM and 1 to 10 nM, respectively.
On the same counts, the results for `CCn1cnc(NC(=O)c2cc3c(nc2OC)nc(C(O)(c2ccccc2)c2ccccc2)n3CC)c1` [Compound 76, 1-ethyl-N-(1-ethyl-1H-imidazol-4-yl)-2-(hydroxydiphenylmethyl)-5-methoxy-1H-imidazo[4,5-b]pyridine-6-carboxamide] are 1 to 10 nM, 1 to 10 nM and 1 to 10 nM.
As for `CCn1cc(NC(=O)c2cc3c(nc2C)nc(C(O)(c2ccccc2F)c2ccccc2F)n3CC)cn1` [Compound 107, 2-[bis(2-fluorophenyl)(hydroxy)methyl]-1-ethyl-N-(1-ethyl-1H-pyrazol-4-yl)-5-methyl-1H-imidazo[4,5-b]pyridine-6-carboxamide], the values for the IC50 in experiment [1], in experiment [2] and in experiment [3] were 1 to 10 nM, 10 to 100 nM and 0.01 to 1 nM, respectively.
`CCn1cnc(NC(=O)c2cc3c(nc2C)nc(C(O)(c2ccccc2)c2ccccc2)n3CC)n1` [Compound 108, 1-ethyl-N-(1-ethyl-1H-1,2,4-triazol-3-yl)-2-(hydroxydiphenylmethyl)-5-methyl-1H-imidazo[4,5-b]pyridine-6-carboxamide]: the IC50 in experiment [1] is 1 to 10 nM; in experiment [2] it was 10 to 100 nM; in experiment [3], 1 to 10 nM.
Consider `CCc1c(C(O)(c2ccccc2F)c2ccccc2F)nn2cc(Cl)c(C(=O)Nc3cnn(CC)c3)cc12` [Compound 12, 2-[Bis-(2-fluoro-phenyl)-hydroxy-methyl]-6-chloro-3-ethyl-pyrazolo[1,5-a]pyridine-5-carboxylic acid (1-ethyl-1H-pyrazol-4-yl)-amide], for which the IC50 in experiment [1], in experiment [2] and in experiment [3] was 1 to 10 nM in each case.
In the case of `CCn1ccc(NC(=O)c2cc3c(nc2Cl)nc(C(O)(c2ccccc2)c2ccccc2)n3CC)n1` [Compound 83, 5-chloro-1-ethyl-N-(1-ethyl-1H-pyrazol-3-yl)-2-(hydroxydiphenylmethyl)-1H-imidazo[4,5-b]pyridine-6-carboxamide], the half-maximal inhibitory concentration (IC50) in experiment [1] is 1 to 10 nM; in experiment [2] it was 1 to 10 nM; in experiment [3], 0.01 to 1 nM.
`CCn1cnc(NC(=O)c2cc3c(nc2OC)nc(C(O)(c2ccccc2)c2ccc(C)s2)n3CC)n1` (racemic) [Compound 51, 1-ethyl-N-(1-ethyl-1H-1,2,4-triazol-3-yl)-2-[hydroxy(5-methylthiophen-2-yl)phenylmethyl]-5-methoxy-1H-imidazo[4,5-b]pyridine-6-carboxamide]: the IC50 in experiment [1] is 1 to 10 nM; in experiment [2], 1 to 10 nM; in experiment [3], 0.01 to 1 nM.
With `CCn1cc(NC(=O)c2cc3c(nc2OC)nc(C(O)(c2ccccc2F)c2ccccc2F)n3CC)cn1` [Compound 104, 2-[bis(2-fluorophenyl)(hydroxy)methyl]-1-ethyl-N-(1-ethyl-1H-pyrazol-4-yl)-5-methoxy-1H-imidazo[4,5-b]pyridine-6-carboxamide], the IC50 in experiment [1], in experiment [2] and in experiment [3] was 1 to 10 nM in each case.
`CCn1c(C(O)(c2ccccc2)c2ccccn2)nc2nc(OC)c(C(=O)Nc3ncn(CCO)n3)cc21` (racemic) [Compound 61, 1-ethyl-2-[hydroxy(phenyl)(pyridin-2-yl)methyl]-N-[1-(2-hydroxyethyl)-1H-1,2,4-triazol-3-yl]-5-methoxy-1H-imidazo[4,5-b]pyridine-6-carboxamide]: the IC50 in experiment [1] fell in the range of 10 to 100 nM; in experiment [2], 0.01 to 1 nM; in experiment [3], 10 to 100 nM.
As to `CCn1c(C(O)(c2ccccc2)c2ccccc2)nc2nc(OC)c(C(=O)Nc3ncn(CCN)n3)cc21` [Compound 46, N-[1-(2-aminoethyl)-1H-1,2,4-triazol-3-yl]-1-ethyl-2-(hydroxydiphenylmethyl)-5-methoxy-1H-imidazo[4,5-b]pyridine-6-carboxamide], the IC50 is 10 to 100 nM in experiment [1], 100 to 10000 nM in experiment [2] and 100 to 10000 nM in experiment [3].
Regarding `CCn1c(C(O)(c2ccccc2)c2ccccc2)nc2nc(OC)c(C(=O)Nc3ncn(CCO)n3)cc21` [Compound 73, 1-ethyl-2-(hydroxydiphenylmethyl)-N-[1-(2-hydroxyethyl)-1H-1,2,4-triazol-3-yl]-5-methoxy-1H-imidazo[4,5-b]pyridine-6-carboxamide], the results for the concentration for half-maximal inhibition (IC50) in experiment [1], in experiment [2] and in experiment [3] were 1 to 10 nM, 10 to 100 nM and 10 to 100 nM, respectively.
On to `CCn1cnc(NC(=O)c2cc3c(nc2OC)nc(C(O)(c2ccc(OC(F)F)cc2)c2ccccc2F)n3CC)n1` (single isomer, unassigned) [Compound 75], for which the IC50 in experiment [1] lay within 0.01 to 1 nM; in experiment [2], 0.01 to 1 nM; in experiment [3] it was 1 to 10 nM.
As to `CCn1cnc(NC(=O)c2cc3c(nc2OC)nc(C(O)(c2cccs2)c2cccs2)n3CC)n1` [Compound 55, 1-ethyl-N-(1-ethyl-1H-1,2,4-triazol-3-yl)-2-[hydroxybis(thiophen-2-yl)methyl]-5-methoxy-1H-imidazo[4,5-b]pyridine-6-carboxamide], the values for the IC50 in experiment [1], in experiment [2] and in experiment [3] were 1 to 10 nM, 0.01 to 1 nM and 0.01 to 1 nM, respectively.
